Marks after values point to notes of the source that are not given here.

Common to all, as to assay type: in vivo, male Wistar rats
Series [1] can be described thus: Open field activity monitor, test for sedation in normal rats. The conditions noted are these: for largest non-sedating dose: intraperitoneally, rats; for open field activity monitor, mean: male, Wistar, rat, in vivo, ip, 20 min. The method, then:
(§1) Experiments were performed on male Wistar rats (wt 150-220g). Two series of experiments were performed in an observer blinded fashion with saline (negative) controls and GABAPentin (positive) controls. The investigations were in two stages: • 1. a range of doses of aprepitant (an example of a NK antagonist) given alone and in combination with flupirtine (an example of an inhibitor of neuronal excitation) were tested for sedating effects using the open field activity monitor.
Individual rats (several rats per treatment group) were placed in an open field activity monitor in which the movement of the rat could be monitored remotely by the frequency and number of interruption of infrared beams directed across the box in a grid. The activity in the monitor was measured for periods of 20 minutes in each rat. This was performed in groups of rats that received (1) control injection of saline, (2) GABAPentin 50 mg/kg as the maximum dose of that drug found previously not to be sedating (drug positive control) administered intraperitoneally, or (3) after pharmacological interventions that involve the administration of aprepitant and flupirtine given at a range of doses alone and in combination. If a rat was sedated by a drug or drug combination, the movements recorded were less. Since rats become habituated to the open field monitor, only one experiment was performed on each rat with this test.
These were the upper dose limits for subsequent experiments investigating the analgesic effects of these drugs administered together in combinations.

For series [2], the system named is streptozotocin-induced diabetic neuropathy. Put plainly: Reversal of heat hyperalgesia (paw flick, Hargreaves) in streptozotocin-induced diabetic neuropathy.
Procedure: Male Wistar rats (wt 50-70 g) were given streptozotocin 150 mg/kg intraperitoneally. […] The largest non-sedating doses of GABAPentin (50 mg/kg intraperitoneally) and aprepitant (6.25 mg/kg intraperitoneally) were assessed for possible analgesic effect by measurement of the percentage reversal of the hyperalgesia caused by the diabetes assessed by withdrawal from noxious heat applied to the hind paw.
Experiments were performed in an observer blinded fashion with parallel saline treated controls:
Series [3] shares this test system. The series can be described thus: Reversal of allodynia (von Frey hair) in streptozotocin-induced diabetic neuropathy. The conditions noted are these: each drug alone at non sedating doses, intraperitoneal. How it is done: as §1
Rats were injected intraperitoneally with streptozotocin (150 mg per kg total dose—Sapphire Bioscience) dissolved in sodium chloride 0.9%. The induction of diabetes was confirmed one week after injection of streptozotocin and weekly thereafter by measurement of tail vein blood glucose levels with Ames Glucofilm test strips and Ames Glucometer blood glucose meter. Only animals with blood glucose levels greater than or equal to 15 mM and maintained continuously for 5 weeks were deemed to be diabetic. […] At the end of five weeks these rats were assessed with the methods of measuring hyperalgesia (paw flick—Hargreaves method) and allodynia (withdrawal from von Frey Hair stimulation at normally non noxious intensity) to elucidate the antinociceptive effects of flupirtine and aprepitant given intraperitoneally alone and in combination (with saline and GABApentin for comparison).

As to `NCC1(CC(=O)O)CCCCC1` [GABAPentin], the largest non-sedating dose in series [1] stood at 50 mg/kg. The “reversal of hyperalgesia (statistics)” value in series [2] (GABAPentin 50 mg/kg alone vs saline, P<0.01) was “statistically significant reversal of hyperalgesia”. Further, the “percentage reversal of the hyperalgesia, mean” value in series [2] (GABAPentin 50 mg/kg intraperitoneally alone, noxious heat to hind paw, n=17) came to 27.67.

Take `C[C@@H](O[C@H]1OCCN(Cc2n[nH]c(=O)[nH]2)[C@H]1c1ccc(F)cc1)c1cc(C(F)(F)F)cc(C(F)(F)F)c1` [aprepitant]: the largest non-sedating dose in series [1] amounted to 6.25 mg/kg. The “open field activity monitor, mean” value in series [1] (6.25 mg/kg) is on record as 869.0; in series [1] (12.5 mg/kg) it was 915.0*; in series [1] (25 mg/kg) it was 964.6*; in series [1] (50 mg/kg), 976.6*; in series [1] (100 mg/kg), 1058.2. The “antinociception with respect to allodynia” value in series [3] is “Neither drug at non sedating doses causes significant antinociception”.

The values are drawn from US20100316678A1, “COMBINATION METHODS AND COMPOSITIONS FOR TREATMENT OF NEUROPATHIC PAIN” (CNSBio Pty Ltd., priority 2007, published 2010).
